Experimental data: a melting point compilation (Tetko et al.; mined from patent text by program, amines drawn as free bases though some values may be those of a salt)

Q: Which melting point does the source give for `CCCCn1c(=O)[nH]c2nc3ccccc3n2c1=O` here?
A: The melting point was 275 to 280 °C.

Q: For `CC1(C)C=Cc2c(ccc3ncccc23)O1`, which melting point is on record?
A: The melting point was 104 to 107 °C.

Q: For `Cc1cc(CCCCCCCOc2ccc(C3=NCCN3)cc2)on1`, which melting point is on record?
A: Its melting point is 118 to 119 °C.

Q: For `CC1(C)Oc2ccc(C#N)cc2C(Nc2ccc(=O)[nH]c2)C1O` (stereo not given), which melting point is on record?
A: The melting point was 285 to 287 °C.

Q: With `COC(=O)c1ccccc1Sc1c(O)c2c(Cl)cc(Cl)cc2[nH]c1=O` as the molecule, how does the melting point read?
A: Its melting point is 158 to 160 °C.

Q: For `CCOC(=O)c1cnn(C)c1C(=O)Nc1ccn2nc(-c3ccccc3)nc2c1`, which melting point is on record?
A: The melting point was 242 to 243 °C.

Q: For `CCCCCCCCCCCCCCCCNc1ccc(C(=O)OCC(COC(C)=O)OC(C)=O)cc1` (stereo not given), which melting point is on record?
A: The melting point was 68 °C.

Q: Which melting point does the source give for `NC(=O)CNC(=O)c1cccc(-c2cccc3cc(Cc4cc(F)cc(Cl)c4)sc23)c1F` here?
A: The melting point was 46 to 47 °C.

Q: For `CC(=O)OC1CSC(Oc2cncc(-c3ccsc3)c2)C(OC(C)=O)C1OC(C)=O` (stereo not given), which melting point is on record?
A: The melting point was 175 °C.

Q: Which melting point does the source give for `CCOCc1nc2c(N)nc3cccnc3c2n1CCCON=C1CCN(C(C)=O)CC1` here?
A: The melting point was 162 to 163 °C.

Q: For `Cc1ccc2c(C(=O)NC3CN4CCC3CC4)cnn2c1` (stereo not given), which melting point is on record?
A: Its melting point is 142 to 144 °C.

Q: For `CC1(C)CNC(=O)N1CC#CCN1CCCC1`, which melting point is on record?
A: Its melting point is 50 °C.

Q: With `O=C1Nc2ccccc2N(C(=O)N2CCCC(CCCN3CCOCC3)C2)c2ncccc21` (stereo not given) as the molecule, how does the melting point read?
A: Its melting point is 161 to 163 °C.

Q: Which melting point does the source give for `COC(=O)c1ccc2oc3c(c(=O)c2c1)CCC3=Cc1cccc(C)n1` here?
A: The melting point was 200 to 202 °C.

Q: With `CC(C)(CC(=O)C(=O)Nc1cc2c(cc1Br)C(=O)OC2)c1ccccc1` as the molecule, how does the melting point read?
A: The melting point was 148 to 150 °C.

Q: For `N#Cc1[nH]c2ccccc2c1-c1ccccc1`, which melting point is on record?
A: The melting point was 137 to 142 °C.

Q: Which melting point does the source give for `O=C(O)c1cc(=O)c(Oc2ccc(C3CCCCC3)cc2)co1` here?
A: Its melting point is 187 to 190 °C.

Q: With `NC(=O)c1ccc(NC2CCN(Cc3ccccc3)C2)cc1` (stereo not given) as the molecule, how does the melting point read?
A: The melting point was 160 to 162 °C.

Q: For `C=C1CC2C(CCC3(C)C2CCC3(O)C(=O)COC(C)=O)C2(C)CCC(=O)C=C12` (stereo not given), which melting point is on record?
A: The melting point was 194 to 196 °C.

Q: With `O=C(NCc1ccc(Cl)cc1)c1cc(F)c2cccnc2c1O` as the molecule, how does the melting point read?
A: The melting point was 184 to 185 °C.

Q: With `COc1ccccc1NC(=O)Nc1nc(Nc2ccccc2-c2ccccc2)nc(N(CCC(=O)O)Cc2ccc(C(F)(F)F)cc2)n1` as the molecule, how does the melting point read?
A: Its melting point is 125 to 128 °C.

Q: With `CCOC(=O)Cc1ccc2oc(-c3ccc(Cl)cc3)nc2c1` as the molecule, how does the melting point read?
A: The melting point was 81 to 82 °C.

Q: With `Cc1ccc(C2=C(c3ccc(S(C)(=O)=O)cc3)CCC2)cc1` as the molecule, how does the melting point read?
A: Its melting point is 118 °C.

Q: With `CC(C)Sc1ccoc1C(=O)Nc1nnn[nH]1` as the molecule, how does the melting point read?
A: The melting point was 201 to 203 °C.

Q: For `CCCSC1=NSc2cc(C)cnc2N1Cc1ccc(-c2ccccc2C#N)cc1`, which melting point is on record?
A: The melting point was 190 to 192 °C.

Q: For `COC(=O)CC(SC(C)=O)C(CC(C)C)C(=O)NC1CCCCCCCCCCNC1=O` (stereo not given), which melting point is on record?
A: Its melting point is 213 to 216 °C.

Q: With `Cc1cc(C)cc(-c2cnn3c(-c4cccc(-c5nnn(Cc6cccnc6)n5)c4)ccnc23)c1` as the molecule, how does the melting point read?
A: The melting point was 73 °C.

Q: For `CCCCCCCCC(SCCCCCC)C(=O)Nc1c(SC)ccc2ncccc12` (stereo not given), which melting point is on record?
A: Its melting point is 91 to 92 °C.

Q: With `CCCCCCCc1c(C)[nH]c(C(=O)OCC)c1C` as the molecule, how does the melting point read?
A: Its melting point is 47 to 49 °C.

Q: For `CC(=O)OC1CC2(CCN(CCCC(=O)c3ccc(F)cc3)C2)c2ccccc21` (stereo not given), which melting point is on record?
A: The melting point was 154 to 156 °C.

Q: With `CCc1cc2c(O)c(C(=O)OCC(C)C)cnc2s1` as the molecule, how does the melting point read?
A: Its melting point is 156 to 158 °C.

Q: With `CCCCC(=O)NCCC(=O)O` as the molecule, how does the melting point read?
A: The melting point was 73 to 76 °C.

Q: With `COc1ccccc1OCC(O)CN1CCC(N2CCN(c3ccc(Cl)cc3)C2=O)CC1` (stereo not given) as the molecule, how does the melting point read?
A: Its melting point is 136 to 137 °C.

Q: Which melting point does the source give for `CCCC12CCC3C4CCC(=O)C=C4CCC3C1CCC2(C)O` (stereo not given) here?
A: The melting point was 134 to 136 °C.

Q: Which melting point does the source give for `Cc1nc(N2CCN(CC(=O)NCc3ccc(F)cc3)C2=O)sc1C(=O)NCc1ccccc1` here?
A: The melting point was 232 to 234 °C.

Q: For `O=S(=O)(NC(=NO)Nc1ccc(Cl)cc1)c1ccc(-c2ccccn2)s1`, which melting point is on record?
A: Its melting point is 210 °C.

Q: With `c1cc(-c2cc3nccnc3[nH]2)cc(C2OCCCO2)c1` as the molecule, how does the melting point read?
A: Its melting point is 205 to 206 °C.

Q: With `Cc1ccc2ncn(-c3nnn[nH]3)c(=O)c2c1` as the molecule, how does the melting point read?
A: Its melting point is 285 to 286 °C.

Q: With `FC(F)Oc1cnnc(-c2cccc(C(F)(F)F)c2)c1` as the molecule, how does the melting point read?
A: Its melting point is 70 to 72 °C.

Q: For `Cc1cccc2nc3sc(Cl)cn3c(=O)c12`, which melting point is on record?
A: Its melting point is 162 to 166 °C.
